In US20250230171A1 (MOMA Therapeutics, Inc., priority 2023, published 2025):
Like-named read-outs stand apart in the source and are kept apart here.

Tests used:
[1] = target: biotinylated Avi-POLθ[2-894] (Homo sapiens (Human), UniProt O75417); assay: POLθ ATPase assay (ADP-Glo); settings: n=2, read-out: Biochemical ATPase ADPGlo IC50
DLD1 BRCA2 (−/−) cells = assay: 7-day cell viability assay (CellTiter-Glo), DLD1 BRCA2 (−/−); type: cell-based, human; settings: Homo sapiens, DLD-1, 168 h, n=2, read-out: Viability IC50 (uM) DLD1 BRCA2 null
Outline: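 7-day growth assay in DLD1 cells with or without BRCA2; seeding densities chosen to keep log-linear growth. Compound: 10 uM top, 3-fold, 9 points. Endpoint: CTG ATP luminescence at RT.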

DLD1 WT cells = assay: 7-day cell viability assay (CellTiter-Glo), DLD1 parental (WT); type: cell-based, human; settings: Homo sapiens, DLD-1, 168 h, n=2

Sequence of biotinylated Avi-POLθ[2-894] (O75417 2-894): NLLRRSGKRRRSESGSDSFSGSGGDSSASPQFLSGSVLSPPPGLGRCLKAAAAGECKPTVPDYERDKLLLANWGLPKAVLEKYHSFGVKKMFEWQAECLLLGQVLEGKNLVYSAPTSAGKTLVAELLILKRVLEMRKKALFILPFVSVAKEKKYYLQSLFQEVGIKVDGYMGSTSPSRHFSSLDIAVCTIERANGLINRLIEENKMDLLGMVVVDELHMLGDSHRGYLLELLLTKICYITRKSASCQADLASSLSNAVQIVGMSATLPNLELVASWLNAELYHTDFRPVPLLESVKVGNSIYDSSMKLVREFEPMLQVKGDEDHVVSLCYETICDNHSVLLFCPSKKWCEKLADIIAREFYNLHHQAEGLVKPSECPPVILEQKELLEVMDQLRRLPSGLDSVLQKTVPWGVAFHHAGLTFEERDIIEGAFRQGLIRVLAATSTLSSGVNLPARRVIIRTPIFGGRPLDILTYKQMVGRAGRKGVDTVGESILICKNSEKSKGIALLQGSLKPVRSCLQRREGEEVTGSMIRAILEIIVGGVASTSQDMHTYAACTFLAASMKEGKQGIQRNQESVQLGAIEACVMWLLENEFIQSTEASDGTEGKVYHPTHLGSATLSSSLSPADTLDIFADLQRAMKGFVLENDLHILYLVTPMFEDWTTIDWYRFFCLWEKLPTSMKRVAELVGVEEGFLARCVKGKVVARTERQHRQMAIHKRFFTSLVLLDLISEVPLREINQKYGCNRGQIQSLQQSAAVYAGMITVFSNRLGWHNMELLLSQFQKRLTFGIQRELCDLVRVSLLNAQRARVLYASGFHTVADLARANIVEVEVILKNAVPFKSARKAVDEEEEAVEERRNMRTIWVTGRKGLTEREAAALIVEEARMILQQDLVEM

| SMILES | IC50 ([1]; POLθ ATPase, ADP-Glo) [nM] | IC50 (DLD1 BRCA2 (−/−) cells; 7-day CellTiter-Glo) [µM] | IC50 (DLD1 WT cells; 7-day CellTiter-Glo) [µM] | IC50 [1] [nM] | IC50 (DLD1 BRCA2 (−/−) cells; 7-day viability) [µM] | IC50 (DLD1 WT cells; 7-day viability) [µM] |
| --- | --- | --- | --- | --- | --- | --- |
| COc1ccc(C#N)cc1-c1cc(C)ncc1C(=O)Nc1nc2c(s1)CN(C(=O)c1cccc(C(F)F)c1Cl)C2 [Example 487] | 1 to 15 | 0.001 to 0.1 | ≥ 10 |  |  |  |
| CCn1ncc(Cl)c1C(=O)N1Cc2nc(NC(=O)c3cnc(C)cc3-c3cc(Cl)ncc3OC)sc2C1 [Example 393, 2′-chloro-N-(5-(4-chloro-1-ethyl-1H-pyrazole-5-carbonyl)-5,6-dihydro-4H-pyrrolo[3,4-d]thiazol-2-yl)-5′-methoxy-6-methyl-[4,4′-bipyridine]-3-carboxamide] | 1 to 15 | 0.001 to 0.1 | ≥ 10 |  |  |  |
| COc1cnc(Cl)cc1-c1cc(C)ncc1C(=O)Nc1nc2c(s1)CN(C(=O)C1CCC(OC(F)(F)F)C1)C2 (racemic) [Example 397, (Racemic) 2′-chloro-5′-methoxy-6-methyl-N-(5-(3-(trifluoromethoxy)cyclopentane-1-carbonyl)-5,6-dihydro-4H-pyrrolo[3,4-d]thiazol-2-yl)-[4,4′-bipyridine]-3-carboxamide] | 1 to 15 | 0.001 to 0.1 | ≥ 10 |  |  |  |
| COc1ccc(C#N)cc1-c1cc(C)ncc1C(=O)Nc1nc2c(s1)CN(C(=O)C1CC(C(F)F)C1)C2 (stereo not drawn) [Example 244] |  |  |  | 1 to 15 | 0.5 to 2 | ≥ 10 |
| COc1cnc(Cl)cc1-c1cc(C)ncc1C(=O)Nc1nc2c(s1)CN(C(=O)c1nn(C)cc1OC)C2 [Example 157] |  |  |  | 1 to 15 | 0.25 to 0.5 | ≥ 10 |
| COc1cnc(Cl)cc1-c1cc(C)ncc1C(=O)Nc1nc2c(s1)CN(C(=O)c1cnccc1Cl)C2 [Example 19, 2′-chloro-N-(5-(4-chloronicotinoyl)-5,6-dihydro-4H-pyrrolo[3,4-d]thiazol-2-yl)-5′-methoxy-6-methyl-[4,4′-bipyridine]-3-carboxamide] |  |  |  | 1 to 15 | 0.001 to 0.1 | ≥ 10 |
| COc1ccc(C#N)cc1-c1cc(C)ncc1C(=O)Nc1nc2c(s1)CN(C(=O)c1c(Cl)cnn1C)C2 [Example 123] |  |  |  | 1 to 15 | 0.001 to 0.1 | ≥ 10 |
| COc1cc(C(=O)N2Cc3nc(NC(=O)c4cnc(C)cc4-c4cc(Cl)ncc4OC)sc3C2)n(C)n1 [Example 90, 2′-chloro-5′-methoxy-N-(5-(3-methoxy-1-methyl-1H-pyrazole-5-carbonyl)-5,6-dihydro-4H-pyrrolo[3,4-d]thiazol-2-yl)-6-methyl-[4,4′-bipyridine]-3-carboxamide] |  |  |  | 1 to 15 | 0.001 to 0.1 | ≥ 10 |
